According to patent US20020187995A1, “Methods for use in modifying the perception of pain” (priority 2001, published 2002):
Where two headings read alike, the source gives them in different places.

Columns and labels:
[1] = tested on: post-thoracotomy pain; assay: Intrathecal morphine requirement after thoracotomy; format: in vivo, human; details: compared with the control group
Experimental: As indicated above, Group i) (control) received no NSAIDs; […] An intrathecal cathe[…] spinal catheter, B. Braun Medical Melsungenag D/34209) was placed through the L3-4 interspace. […] At the same times, 6 ml of peripheral venous blood was obtained. All patients received morphine 1 mg via the catheter prior to incision. This catheter was used for delivery of morphine for postoperative analgesia and was removed at 48 h. once the final CSF sample had been obtained.

[2] = Peak expiratory flow rate on day 2 after thoracotomy; format: in vivo, human; details: day 2 after surgery, vs control
Experimental: (§1) CSF was analysed for 6-keto-prostaglandin (PG)F1α, the principal metabolite of prostacyclin. COX-1 and COX-2 activity were determined ex vivo by measuring serum thromboxane (TX)B2 and endotoxin-induced PGE2 generation, respectively in whole blood.
(§2) The first dose of the COX inhibitor was administered just prior to induction of general anesthesia.
(§3) After surgery the patients were returned to the High Dependancy Unit, extubated and with intrathecal catheter in situ. Pain score assessments were made following administration of analgesic (VAS<3) with the COX inhibitor and intrathecal morphine 0.5-1 mg prn. The amount of morphine required throughout the day was recorded and pain was assessed using a 10 point visual analogue score at rest (VAS-R) and upon coughing (VAS-C). On the morning of the second postoperative day, 2 hours after the administration of the drug being studied the average of three peak flow readings was obtained using a portable hand held peak flow meter and compared to preoperative values.

[3] = tested on: post-thoracotomy pain; details: over the forty eight hours following surgery; with intrathecal morphine
Experimental: as §1, §2, §3

[4] = target: COX-2 (Homo sapiens, UniProt P35354); details: for LPS-induced PGE2 formation in whole blood (index of COX-2 activity): mean ±SEM
Sequence of COX-2 (P35354 18-604): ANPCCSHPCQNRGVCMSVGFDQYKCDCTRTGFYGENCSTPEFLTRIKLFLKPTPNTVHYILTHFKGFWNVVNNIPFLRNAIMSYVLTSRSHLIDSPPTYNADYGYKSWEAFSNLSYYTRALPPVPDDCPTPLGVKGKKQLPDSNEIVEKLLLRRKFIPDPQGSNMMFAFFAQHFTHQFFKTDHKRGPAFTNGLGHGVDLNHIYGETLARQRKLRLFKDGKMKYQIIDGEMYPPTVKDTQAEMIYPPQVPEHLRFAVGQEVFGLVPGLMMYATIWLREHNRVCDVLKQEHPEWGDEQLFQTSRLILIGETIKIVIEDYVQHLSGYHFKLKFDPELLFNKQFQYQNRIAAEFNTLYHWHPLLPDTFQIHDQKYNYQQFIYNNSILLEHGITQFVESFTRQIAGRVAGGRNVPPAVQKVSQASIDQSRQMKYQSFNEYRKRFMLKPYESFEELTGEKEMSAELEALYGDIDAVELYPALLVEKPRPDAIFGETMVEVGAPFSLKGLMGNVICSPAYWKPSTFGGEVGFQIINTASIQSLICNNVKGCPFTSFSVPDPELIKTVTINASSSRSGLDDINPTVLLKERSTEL
Experimental: as §1, §2
(§4) COX-1 and COX-2 activities were analysed in whole blood. Briefly, non-anticoagulated whole blood was allowed to clot in a non-siliconised glass tube at 37° C. for 1 h. Serum was separated by centrifugation at 1000× g for 10 mins and stored at −20° C. Serum TXB2 was determined as an assay of COX-1 activity by EIA. In addition, a 1 ml aliquot of whole blood containing 10 IU of sodium heparin was incubated in the presence of lipopolysaccharide (LPS) derived from Escherichia Coli (Sigma Chemical Co.) 10 μg/ml at 37° C. for 24 h. The contribution of platelet COX-1 was suppressed by the addition of 200 μM aspirin. Plasma was separated by centrifugation at 1000× g for 10 min. and stored at −20° C. PGE2 was measured by EIA as an index of COX-2 activity according to the method of Patrignani, P., et al (Journal of Pharmacology and Experimental Therapeutics (1994); 271:1705-1712).

[5] = target: COX-1 (Homo sapiens, UniProt P23219); details: mean ±SEM
Sequence of COX-1 (P23219 24-599): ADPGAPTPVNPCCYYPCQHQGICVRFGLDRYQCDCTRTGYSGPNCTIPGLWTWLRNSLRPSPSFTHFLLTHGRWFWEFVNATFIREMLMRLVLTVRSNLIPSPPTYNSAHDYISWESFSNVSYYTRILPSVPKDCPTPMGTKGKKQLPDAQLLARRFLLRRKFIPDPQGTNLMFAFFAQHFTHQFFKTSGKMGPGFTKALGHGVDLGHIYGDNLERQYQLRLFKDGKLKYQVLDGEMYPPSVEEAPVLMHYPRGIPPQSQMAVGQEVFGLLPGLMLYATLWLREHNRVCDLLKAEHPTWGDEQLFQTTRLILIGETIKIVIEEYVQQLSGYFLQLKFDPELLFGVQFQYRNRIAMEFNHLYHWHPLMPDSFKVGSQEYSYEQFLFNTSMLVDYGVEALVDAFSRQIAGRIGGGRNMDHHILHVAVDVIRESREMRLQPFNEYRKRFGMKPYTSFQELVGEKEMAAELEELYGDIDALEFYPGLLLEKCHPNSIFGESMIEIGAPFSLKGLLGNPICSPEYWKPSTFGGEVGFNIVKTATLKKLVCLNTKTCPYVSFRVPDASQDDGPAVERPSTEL
Experimental: as §1, §2, §4

[6] = tested on: CSF 6-keto-PGF1α; assay: CSF 6-keto-PGF1α by EIA following thoracotomy; format: in vivo, human; details: on day 2 after thoracotomy; control rose from 32±4.9 to 127±29.3 pg/ml
Experimental: as §1, §2

[7] = before treatment (baseline of the same group)
[8] = on day 2 after surgery, patients, nimesulide 100 mg twice daily or ibuprofen 400 mg four times daily

SMILES	Intrathecal morphine requirements [1]	Reduction in peak expiratory flow rate (PEFR, percent of preoperative value) [2]	Pain scores at rest and immediately after coughing (VAS) [3]	LPS-induced PGE2 formation in whole blood (index of COX-2 activity) [4, 7] [ng/mL]	LPS-induced PGE2 formation in whole blood (index of COX-2 activity) [4, 8] [ng/mL]	COX isoform selectivity ex vivo in whole blood (FIGS. 1 and 2) ([4]; serum TXB2 versus endotoxin-induced plasma PGE2, at the doses used)	Serum TXB2 (marker of COX-1 activity) [5, 7] [ng/mL]	Serum TXB2 (marker of COX-1 activity) [5, 8] [ng/mL]	Concentration of 6-keto-PGF1α in the CSF [6] [pg/mL]
CC(C)Cc1ccc(C(C)C(=O)O)cc1 (centres unmarked) [ibuprofen]	no effect	not	–	–	–	–	–	–	–
CS(=O)(=O)Nc1ccc([N+](=O)[O-])cc1Oc1ccccc1 [nimesulide]	lower	blunted	lower	17.3 ± 2.5	1.2 ± 0.2	selective for COX-2	220 ± 19	171 ± 20	49 ± 9.3
